The values that follow come from PMC12631985 (Environmental Science & Technology, 2025).

The subject of one data set is AR mRNA. Nature of the data set: Quantitative RT-PCR for DHT-induced AR mRNA expression in 22Rv1/MMTV-GRKO cells. The format is cell-based, human. The note with it: with DHT; highest noncytotoxic concentration (≥80% viability); n = 3.
For another data set, the system named is zebrafish. The note with it: previous research; ref number not printed at the place; cited from earlier work.
The next data set concerns AR protein expression. Nature of the data set: Western blot for DHT-induced AR protein expression. Conditions: highest noncytotoxic concentration (≥80% viability), n = 3. In general terms: In western blotting, separated proteins are transferred to a membrane and probed.

Structures are written as SMILES.

Take `N#CC(CCc1ccc(Cl)cc1)(Cn1cncn1)c1ccccc1` (centres unmarked) [fenbuconazole]: the “reduction in AR mRNA levels compared to the DHT-only treatment group” value (from here on “reduction in AR mRNA levels”) with AR mRNA is 45.0%. In the data set on zebrafish, the toxicity in zebrafish result is “significantly impaired mitochondrial function and locomotor activity”. Besides, the “suppression level of DHT-induced AR protein expression compared with the DHT-only treatment group” value with AR protein expression was 24.6%.
For `CC(C)(C)C(O)(CCc1ccc(Cl)cc1)Cn1cncn1` (centres unmarked) [tebuconazole], the “reduction in AR mRNA levels” value in the data set with AR mRNA amounted to 37.5%.
Regarding `Fc1ccc([C@]2(Cn3cncn3)O[C@H]2c2ccccc2Cl)cc1` (racemic) [epoxiconazole], the “reduction in AR mRNA levels” value in the data set with AR mRNA is listed as 59.0%.
For the molecule `CCCOC/C(=N\c1ccc(Cl)cc1C(F)(F)F)n1ccnc1` [triflumizole], the “reduction in AR mRNA levels” value with AR mRNA is given as 26.5%.
For the molecule `CC1(C)CCC(Cc2ccc(Cl)cc2)C1(O)Cn1cncn1` (centres unmarked) [metconazole], the “reduction in AR mRNA levels” value with AR mRNA stood at 27.8%.
For the molecule `C[Si](Cn1cncn1)(c1ccc(F)cc1)c1ccc(F)cc1` [flusilazole], in the data set on AR mRNA, the “reduction in AR mRNA levels” value turned out to be 60.4%.
